{"source": "paper PMC11156899", "about": "“High-throughput screening unveils nitazoxanide as a potent PRRSV inhibitor by targeting NMRAL1” (Nature Communications, 2024)", "key": {"Nsp1α": {"test_system": "Nsp1α", "assay": "Differential scanning fluorimetry, purified Nsp1α", "assay_type": "binding, PRRSV GSWW-18 strain", "conditions": "DSF", "description": "For DSF, 20 μM purified NSP1α and NSP12 protein from the GSWW-18 strain, as well as NMRAL1 protein (Accession: A0A0D9R9W0) was thoroughly mixed with 20 μM SYPRO Orange (S6650, Thermo) in a buffer containing 10 mM HEPES and 200 mM NaCl at pH 7.20. An equal volume of 100 μM NTZ, dissolved in the same buffer, was added and the mixture was filtered through a 0.22 μm filter. For controls, an equivalent volume of DMSO was used. […] DSF experiments were monitored using the QuantStudio™ 5 Real-Time PCR System (Thermo). Data were analyzed using DSFworld[42].\nSupplementary Fig. 10: The Affinity of Nsp1α and Nsp12 with TIZ is Lower Than That of NMRAL1.\n(a) The KD value of NMRAL1 obtained through the Affinity fit model.\n(b) The KD value of Nsp1α determined using the Kinetics fit model.\n(c) The KD value of Nsp1α obtained through the Affinity fit model."}, "[1]": {"test_system": "Porcine alveolar macrophages (PAM)", "assay": "in vitro", "description": "(§1) A concentration-gradient screening strategy was employed for 141 compounds using indirect immunofluorescence assay (IFA). […] Data are mean ± SEM.\n(§2) Cells were seeded in 96-well plates and grown in DMEM supplemented with 10% FBS. Upon reaching confluence, compounds were diluted to varying concentrations in 2% FBS-containing medium. Control wells contained DMEM with 0.5% DMSO. Treated cells were incubated at 37 °C in a 5% CO2 humidified environment for 48 or 72 h, followed by cytotoxicity assessment as outlined in our previous work[21]. […]"}, "in vitro": {"assay": "in vitro", "conditions": "pig", "description": "as §1, §2"}, "[2]": {"assay": "Cytotoxicity assay (CC50) in MARC-145 cells", "assay_type": "cell-based", "conditions": "African green monkey, 48 h of exposure, CCK-8", "excerpt": "Control wells contained DMEM with 0.5% DMSO.\n(§3) Supplementary Fig. 3: Cytotoxicity and Antiviral Efficacy of NTZ.\n(§4) PRRSV capsid protein positive\n(§5) (primary antibody SR30, green) and nuclei (DAPI, blue)."}, "PRRSV GSWW-15": {"test_system": "PRRSV GSWW-15", "assay": "EC50 against GSWW-15 strain on PAM cells", "assay_type": "cell-based", "conditions": "Porcine reproductive and respiratory syndrome virus", "excerpt": "as §3, §4, §5"}, "PRRSV VR-2332": {"test_system": "PRRSV VR-2332", "assay": "Time-of-addition and lifecycle-stage experiments in Marc-145 cells", "assay_type": "cell-based, Porcine Reproductive and Respiratory Syndrome Virus", "excerpt": "The pronounced antiviral phenotype led us to explore the mechanism behind NTZ’s inhibition of PRRSV proliferation. We adopted a classic approach of administering the drug at various time points to study NTZ’s effect on the PRRSV lifecycle (Supplementary Fig. 9a). […] Identifying the target protein of NTZ became imperative. Using the isothermal shift assay (iTSA), we discovered 26 potential NTZ targets (Fig. 5a). Further, Cellular Thermal Shift Assay-Western Blot (CETSA-WB) temperature range (TR) experiment indicated Glycine amidinotransferase mitochondrial (GATM), NMRAL1, and PRRSV proteins NSP1α and NSP12 as potential NTZ targets (Fig. 5b, c). The compound concentration range (CCR) experiment also supported these four proteins as potential NTZ targets (Fig. 5d).\nSupplementary Fig. 9: NTZ Inhibition of PRRSV Replication Stages.\n(a) Schematic of the classic experimental approach of adding the drug at different time points. […]\n(c) Viral inactivation (dark purple): PRRSV was pre-incubated with the compound for 1 hour in the incubator before transferring to monolayer Marc-145 cells, followed by medium change after 2 hours. […] All samples were collected and analyzed at 48 […]\nhours. […] NS indicates P > 0.0332, calculated via two-way ANOVA with Dunnett’s multiple-comparison test (b and c); P-values < 0.0332 were considered significant."}, "[3]": {"conditions": "pig, in vivo, po", "description": "Blood samples were collected from the anterior vena cava for complete blood count using a PE-6800VET analyzer (Prokan) and biochemical analysis using a VetTest Plasma Chemistry Analyzer (IDEXX). Reference ranges were obtained from Iowa State University College of Veterinary Medicine (https://vetmed.iastate.edu/vpath/services/diagnostic-services/clinical-pathology/testing-and-fees/reference-intervals). IHC were performed as previously described, involving 24-h incubation with SR30 antibody (1:400) and subsequent treatment with HRP-labeled secondary antibody.\nSupplementary Fig. 6: Complete Blood Counts and Biochemical Analysis.\nSix animals from the same enclosure were divided into three groups (n = 2) and fed different doses of NTZ twice daily for three\nconsecutive days, with a 12-hour interval. Parameters measured included White Blood Cell (WBC) counts, Lymphocyte (LYM)\npercentages, Monocyte (MONO) counts, Neutrophil (NEU) counts, Red Blood Cell (RBC) counts, Hemoglobin (HGB)\nconcentration, Mean Corpuscular Hemoglobin (MCH), Mean Corpuscular Hemoglobin Concentration (MCHC), Platelet (PLT)\ncounts, Albumin (ALB) concentration, Total Protein (TP) concentration, Glucose (GLU) levels, Alkaline Phosphatase (ALP)\nlevels, Total Bilirubin (TBIL) levels, and Blood Urea Nitrogen (BUN) concentration. The grey areas in each panel represent the\nreference ranges for these indices."}, "[4]": {"test_system": "PRRSV (VR-2332, GSWW-15, GSWW-18)", "assay": "Viral titers of VR-2332, GSWW-15 and GSWW-18 in Marc-145 cells", "assay_type": "cell-based, Porcine Reproductive and Respiratory Syndrome Virus", "conditions": "all three strains", "description": "Viral solutions were serially diluted by a factor of 10. Samples containing varying concentrations of virus (100 μL each) were combined with DMEM containing 2% FBS (100 μL) and added to wells; control wells were virus-free. […] Relative quantification qRT-PCR was used to assess PRRSV gene expression, normalized using the 2^−ΔΔCt method in Design & Analysis Software (v2.6.0). Absolute quantification qRT-PCR was used for viral copy number detection, with RNA concentration normalization prior to analysis, as described in our previous publication. Primers used included: PRRSV 5′-[…]′ and 5′-[…]-3′; Marc-145-GAPDH 5′-[…]-3′ and 5′-[…]-3′; PAM-GAPDH 5′-[…]-3′ and 5′-[…]-3′; IFNβ 5′-[…]-3′ and 5′-[…]-3′; Human-GAPDH 5′-[…]-3′ and 5′-[…]-3′.\nas §3, §4, §5"}}}
{"smiles": "CC(=O)Oc1ccccc1C(=O)Nc1ncc([N+](=O)[O-])s1", "note": "[Nitazoxanide]", "values": [{"measurement": "decrease in the Tm value", "setting": "Nsp1α", "value": 3.75, "unit": "°C"}, {"measurement": "cytotoxicity (in words)", "setting": "[1]", "value": "low cytotoxicity"}, {"measurement": "CC50 at 48 h", "setting": "in vitro", "value": "~44", "unit": "µM"}, {"measurement": "CC50 at 48 h", "setting": "[2]", "value": "~44", "unit": "µM"}, {"measurement": "EC50", "setting": "PRRSV GSWW-15", "value": "~1170", "unit": "nM"}, {"measurement": "PRRSV proliferation, late addition", "setting": "PRRSV VR-2332; added 16 h post viral inoculation", "value": "significantly inhibited PRRSV proliferation"}, {"measurement": "stage of PRRSV lifecycle affected", "setting": "PRRSV VR-2332; adsorption, entry, replication, release", "value": "primarily affects PRRSV replication"}, {"measurement": "adverse reactions (hematology, biochemical indices, clinical activity)", "setting": "[3]", "value": "No adverse reactions"}, {"measurement": "relation of concentration to viral titers", "setting": "[4]", "value": "negative correlation"}]}
